Reference: patent publication US10273243B2, “4-phenylpiperidines, their preparation and use” (The Trustees of Columbia University in the City of New York, priority 2013, dated 2019)
Counter-ions that a name gives are not always drawn.

| melting point | Compound |
| --- | --- |
| 141 to 143 °C | Cc1nnsc1C(=O)N1CCC(c2ccccc2C(F)(F)F)CC1 [Example 84, (4-Methyl-1,2,3-thiadiazol-5-yl)(4-(2-(trifluoromethyl)phenyl)piperidin-1-yl)methanone] |
| 235 to 239 °C (dec.) | O=C(c1cnn[nH]1)N1CCC(c2ccccc2C(F)(F)F)CC1 [Example 88, (1H-1,2,3-Triazol-5-yl)(4-(2-(trifluoromethyl)phenyl)piperidin-1-yl)methanone] |
| 258 to 261 °C | O=C(c1cc2ncc(Cl)cc2[nH]1)N1CCC(c2ccccc2C(F)(F)F)CC1 [Example 77, (6-Chloro-1H-pyrrolo[3,2-b]pyridin-2-yl)(4-(2-(trifluoromethyl)phenyl)piperidin-1-yl)methanone] |
| 216 to 219 °C | CCC(=O)N1Cc2[nH]nc(C(=O)N3CCC(c4ccccc4C(F)(F)F)CC3)c2C1 [Example 53, 1-(3-(4-(2-(Trifluoromethyl)phenyl)piperidine-1-carbonyl)pyrrolo[3,4-c]pyrazol-5(1H,4H,6H)-yl)propan-1-one] |
| 50 to 60 °C | CC(=O)N1CCCC1C(=O)N1CCC(c2ccccc2C(C)(C)C)CC1 (centres unmarked) [Example 97, 1-(2-(4-(2-(Tert-butyl)phenyl)piperidine-1-carbonyl)pyrrolidin-1-yl)ethanone] |
| 268 to 272 °C (dec.) | O=C(c1cc2ncc(N3CCOCC3)cc2[nH]1)N1CCC(c2ccccc2C(F)(F)F)CC1 [Example 76, (6-Morpholino-1H-pyrrolo[3,2-b]pyridin-2-yl)(4-(2-(trifluoromethyl)phenyl)piperidin-1-yl)methanone] |
| > 270 °C | O=C(c1cc2ncc(-n3ccnc3)cc2[nH]1)N1CCC(c2ccccc2C(F)(F)F)CC1 [Example 75, (6-(1H-Imidazol-1-yl)-1H-pyrrolo[3,2-b]pyridin-2-yl)(4-(2-(trifluoromethyl)phenyl)piperidin-1-yl)methanone] |
| 122 to 125 °C | COc1ccc(C(=O)N2CCC(c3ccccc3C(F)(F)F)CC2)nn1 [Example 86, (6-Methoxypyridazin-3-yl)(4-(2-(trifluoromethyl)phenyl)piperidin-1-yl)methanone] |
| 65 to 75 °C | CC(C)(C)c1ccccc1C1CCN(C(=O)[C@H]2C[C@@H](O)CN2)CC1 [Example 98, (4-(2-(Tert-butyl)phenyl)piperidin-1-yl)((2R,4R)-4-hydroxypyrrolidin-2-yl)methanone] |
| 144 to 148 °C | Cc1ccc(C(=O)N2CCC(c3ccccc3C(F)(F)F)CC2)nn1 [Example 85, (6-Methylpyridazin-3-yl)(4-(2-(trifluoromethyl)phenyl)piperidin-1-yl)methanone] |
| 254 to 258 °C | Cc1cnc2cc(C(=O)N3CCC(c4ccccc4C(F)(F)F)CC3)[nH]c2c1 [Example 70, (6-Methyl-1H-pyrrolo[3,2-b]pyridin-2-yl)(4-(2-(trifluoromethyl)phenyl)piperidin-1-yl)methanone] |
| 159 to 163 °C | Cn1c(C(=O)N2CCC(c3ccccc3C(F)(F)F)CC2)cc2ncccc21 [Example 74, (1-Methyl-1H-pyrrolo[3,2-b]pyridin-2-yl)(4-(2-(trifluoromethyl)phenyl)piperidin-1-yl)methanone] |
| 109 to 111 °C | O=C(c1cnccn1)N1CCC(c2ccccc2C(F)(F)F)CC1 [Example 87, Pyrazin-2-yl(4-(2-(trifluoromethyl)phenyl)piperidin-1-yl)methanone] |
| 170 to 173 °C | NS(=O)(=O)Oc1ccccc1CC(=O)N1CCC(c2ccccc2C(F)(F)F)CC1 [Example 102, 2-(2-Oxo-2-(4-(2-(trifluoromethyl)phenyl)piperidin-1-yl)ethyl)phenylsulfamate] |
| 80 to 84 °C | CC(C)(C)c1ccccc1C1CCN(C(=O)C2CCCS2(=O)=O)CC1 (centres unmarked) [Example 100, (4-(2-(tert-butyl)phenyl)piperidin-1-yl)(1,1-dioxidotetrahydrothiophen-2-yl)methanone] |
| 125 to 127 °C | O=C(c1cccnn1)N1CCC(c2ccccc2C(F)(F)F)CC1 [Example 82, Pyridazin-3-yl(4-(2-(trifluoromethyl)phenyl)piperidin-1-yl)methanone] |
| 192 to 195 °C | CC(C)C(=O)N1Cc2[nH]nc(C(=O)N3CCC(c4ccccc4C(F)(F)F)CC3)c2C1 [Example 54] |
| 229 to 232 °C | CC(C)(C)C(=O)N1Cc2[nH]nc(C(=O)N3CCC(c4ccccc4C(F)(F)F)CC3)c2C1 [Example 56, 2,2-Dimethyl-1-(3-(4-(2-(trifluoromethyl)phenyl)piperidine-1-carbonyl)pyrrolo[3,4-c]pyrazol-5(1H,4H,6H)-yl)propan-1-one] |

Further lines, the compound ahead of its results:

| Compound | melting point |
| --- | --- |
| O=C(c1n[nH]c2c1CNCC2)N1CCC(c2ccccc2C(F)(F)F)CC1 [Example 26, (4,5,6,7-Tetrahydro-1H-pyrazolo[4,3-c]pyridin-3-yl)(4-(2-(trifluoromethyl)phenyl)piperidin-1-yl)methanone] | 270 to 272 °C |
| O=C(c1n[nH]c2cc(F)c(F)cc12)N1CCC(c2ccccc2C(F)(F)F)CC1 [Example 34, (5,6-Difluoro-1H-indazol-3-yl)(4-(2-(trifluoromethyl)phenyl)piperidin-1-yl)methanone] | 233 to 235 °C |
| CC(C)S(=O)(=O)N1CCc2[nH]nc(C(=O)N3CCC(c4ccccc4C(F)(F)F)CC3)c2C1 [Example 39, (5-(Isopropylsulfonyl)-4,5,6,7-tetrahydro-1H-pyrazolo[4,3-c]pyridin-3-yl)(4-(2-(trifluoromethyl)phenyl)piperidin-1-yl)methanone] | 199 to 201 °C |
| CN1CCc2c(C(=O)N3CCC(c4ccccc4C(F)(F)F)CC3)n[nH]c2C1 [Example 19, (6-Methyl-4,5,6,7-tetrahydro-1H-pyrazolo[3,4-c]pyridin-3-yl)(4-(2-(trifluoromethyl)phenyl)piperidin-1-yl)methanone] | 115 to 120 °C |
| CC(=O)N1CCc2c(C(=O)N3CCC(c4ccccc4C(F)(F)F)CC3)n[nH]c2C1 [Example 17, 1-(3-(4-(2-(Trifluoromethyl)phenyl)piperidine-1-carbonyl)-4,5-dihydro-1H-pyrazolo[3,4-c]pyridin-6(7H)-yl)ethanone] | 202 to 209 °C |
| CCN1CCc2[nH]nc(C(=O)N3CCC(c4ccccc4C(F)(F)F)CC3)c2C1 [Example 43, (5-Ethyl-4,5,6,7-tetrahydro-1H-pyrazolo[4,3-c]pyridin-3-yl)(4-(2-(trifluoromethyl)phenyl)piperidin-1-yl)methanone] | 159 to 162 °C |
| Cn1nc(C(=O)N2CCC(c3ccccc3C(F)(F)F)CC2)c2c1CCS(=O)(=O)C2 [Example 3, (1-methyl-5,5-dioxido-1,4,6,7-tetrahydrothiopyrano[4,3-c]pyrazol-3-yl)(4-(2-(trifluoromethyl)phenyl)piperidin-1-yl)methanone] | 232 to 234 °C |
| CC(C)S(=O)(=O)N1CCc2c(C(=O)N3CCC(c4ccccc4C(F)(F)F)CC3)n[nH]c2C1 [Example 51, (6-(Isopropylsulfonyl)-4,5,6,7-tetrahydro-1H-pyrazolo[3,4-c]pyridin-3-yl)(4-(2-(trifluoromethyl)phenyl)piperidin-1-yl)methanone] | 220 to 222 °C |
| Cn1nc(C(=O)N2CCC(c3ccccc3C(F)(F)F)CC2)c2c1CC(C)(C)OC2 [Example 2, (4-(2-(Trifluoromethyl)phenyl)piperidin-1-yl)(1,6,6-trimethyl-1,4,6,7-tetrahydropyrano[4,3-c]pyrazol-3-yl)methanone] | 58 to 64 °C |
| CCC(=O)N1CCc2[nH]nc(C(=O)N3CCC(c4ccccc4C(F)(F)F)CC3)c2C1 [Example 44, 1-(3-(4-(2-(Trifluoromethyl)phenyl)piperidine-1-carbonyl)-6,7-dihydro-1H-pyrazolo[4,3-c]pyridin-5(4H)-yl)propan-1-one] | 153 to 155 °C |
| CC(C)(C)C(=O)N1CCc2[nH]nc(C(=O)N3CCC(c4ccccc4C(F)(F)F)CC3)c2C1 [Example 40, 2,2-Dimethyl-1-(3-(4-(2-(trifluoromethyl)phenyl)piperidine-1-carbonyl)-6,7-dihydro-1H-pyrazolo[4,3-c]pyridin-5(4H)-yl)propan-1-one] | 126 to 128 °C |
| CCS(=O)(=O)N1CCc2[nH]nc(C(=O)N3CCC(c4ccccc4C(F)(F)F)CC3)c2C1 [Example 37, (5-(Ethylsulfonyl)-4,5,6,7-tetrahydro-1H-pyrazolo[4,3-c]pyridin-3-yl)(4-(2-(trifluoromethyl)phenyl)piperidin-1-yl)methanone] | 187 to 189 °C |
| CC(C)CN1CCc2[nH]nc(C(=O)N3CCC(c4ccccc4C(F)(F)F)CC3)c2C1 [Example 45, (5-Isobutyl-4,5,6,7-tetrahydro-1H-pyrazolo[4,3-c]pyridin-3-yl)(4-(2-(trifluoromethyl)phenyl)piperidin-1-yl)methanone] | 105 to 107 °C |
| CCC(=O)N1CCc2c(C(=O)N3CCC(c4ccccc4C(F)(F)F)CC3)n[nH]c2C1 [Example 49, 1-(3-(4-(2-(Trifluoromethyl)phenyl)piperidine-1-carbonyl)-4,5-dihydro-1H-pyrazolo[3,4-c]pyridin-6(7H)-yl)propan-1-one] | 162 to 164 °C |
| O=C(CC(F)(F)F)N1CCc2[nH]nc(C(=O)N3CCC(c4ccccc4C(F)(F)F)CC3)c2C1 [Example 47, 3,3,3-Trifluoro-1-(3-(4-(2-(trifluoromethyl)phenyl)piperidine-1-carbonyl)-6,7-dihydro-1H-pyrazolo[4,3-c]pyridin-5(4H)-yl)propan-1-one] | 127 to 130 °C |
| O=C(c1n[nH]c2c1CCNC2)N1CCC(c2ccccc2C(F)(F)F)CC1 (as salt: hydrochloride) [Example 16, (4,5,6,7-Tetrahydro-1H-pyrazolo[3,4-c]pyridin-3-yl)(4-(2-(trifluoromethyl)phenyl)piperidin-1-yl)methanone Hydrochloride] | 272 to 278 °C |
| O=C(c1n[nH]c2c1CN(C1COC1)CC2)N1CCC(c2ccccc2C(F)(F)F)CC1 [Example 46, (5-(Oxetan-3-yl)-4,5,6,7-tetrahydro-1H-pyrazolo[4,3-c]pyridin-3-yl)(4-(2-(trifluoromethyl)phenyl)piperidin-1-yl)methanone] | 107 to 110 °C |
